# According to patent publication US11377425B1, “Small molecule modulators of IL-17” (LEO Pharma A/S, priority 2018, dated 2022):
# Biological target: T1, human IL-17AA (Homo sapiens, UniProt Q16552)
# T1 construct: host or cells: HEK (human embryonic kidney) cells
# T1 sequence (Q16552 24-155): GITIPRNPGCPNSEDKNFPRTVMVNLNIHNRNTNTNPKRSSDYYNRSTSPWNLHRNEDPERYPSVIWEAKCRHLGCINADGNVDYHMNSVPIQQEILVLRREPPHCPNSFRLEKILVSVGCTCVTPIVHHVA
# Assay: IL-8 release assay in human epithelial keratinocytes adult (HEKa)
# Format: cell-based
# Conditions: HEKa cells, 3 ng/mL HEK-human IL-17AA + 10 ng/mL human TNFalpha; read-out: Rel EC50 IL-8 release assay
# Experimental: Example 138: IL-8 Release Assay in Human Epithelial Keratinocytes Adult (HEKa)
# Keratinocytes were seeded at 3500 cells/well in 384-well ViewPlates (Perkin Elmer) in Epilife medium (Thermo Fisher) containing human keratinocyte growth supplement (HKGS) without hydrocortisone and incubated in a humid incubator at 37° C. 5% CO2, overnight. The following day growth medium was removed and 25 μl fresh Epilife medium added. 75 nL test compound in 100% DMSO was added into each well reserved for test compounds, by the use of acoustic pipetting. The remaining wells received an equal volume of DMSO only, as vehicle control, or terfenadine in DMSO, as a positive control for any cytotoxic compounds. Subsequently, another 25 μL Epilife medium was added to each well. Finally, wells containing test compounds and wells prepared to yield maximum stimulation received […] of 9 ng/mL recombinant, human embryonic kidney cell (HEK)-derived human IL-17AA+30 ng/mL human TNF-alpha, in Epilife medium. Wells prepared to define 100% inhibition of IL-17 effects received 25 μL of 30 ng/mL human TNF-alpha alone, in Epilife medium. Final concentrations were 3 ng/mL HEK-human IL-17AA+10 ng/mL human TNFalpha (maximum stimulation) and 10 ng/mL human TNFalpha alone (100% inhibition, Emax), respectively. Cells were incubated for 68-72 hours in the incubator. IL-8 released from the cells was measured by the use of a commercial homogenous time-resolved fluorescence (HTRF) assay (CisBio). 2 μL cell culture supernatant was transferred to a 384-well Proxiplate. 5 μL HTRF reagent was added and the plates incubated sealed in the dark for 3-22 hours at room temperature. Time-resolved fluorescence was read at 665 vs 620 nm, with excitation at 320 nm, and IL-8 levels calculated as percent of controls. Reduction of the amount of secreted IL-8 indicates decreased IL-17 signaling. Concentration response curves were fitted by the use of a four-parameter logistic equation. Relative IC50 and Emax were reported from curves showing acceptable fit (r^2>0.9). Cytotoxicity was measured in the cell-containing Viewplates following addition of 7 μL PrestoBlue (Thermo Fisher) and incubation for 2.5-3 hours at room temperature, by measuring fluorescence at 615 nm (excitation at 535 nm). Fluorescence was directly proportional to the amount of metabolic activity. Reduction of fluorescence signal indicated cytotoxicity.
# Compounds of the present invention were tested in the IL-8 release assay in human epithelial keratinocytes.
# Compounds having a Relative EC50 of X; wherein X<100 nM; are indicated with *
# Compounds having a Relative EC50 of X; wherein 100 nM<X<1000 nM; are indicated with **
# Compounds having a Relative EC50 of X; wherein 1000 nM<X; are indicated with ***
row,EC50,SMILES
1,100 to 1000 nM,Cc1n[nH]c(C)c1-c1ccc(NC(=O)[C@@H](NC(=O)c2ccnn2C)C(C)C2CCCC2)cc1 (mixture of isomers) [Example 221]
2,100 to 1000 nM,"Cc1n[nH]c(C)c1-c1ccc(NC(=O)C(NC(=O)c2ccnn2C(C)C)C2CCC3(CC2)CC3)cc1 (racemic) [Example 20, N-[2-[4-(3,5-dimethyl-1H-pyrazol-4-yl)anilino]-2-oxo-1-spiro[2.5]octan-6-yl-ethyl]-2-isopropyl-pyrazole-3-carboxamide]"
3,< 100 nM,"Cc1n[nH]c(C)c1-c1ccc(NC(=O)C(NC(=O)c2ccnn2C(C)C)C(C2CC2)C2CC2)cc1 (racemic) [Example 31, N-[1-(dicyclopropylmethyl)-2-[4-(3,5-dimethyl-1H-pyrazol-4-yl)anilino]-2-oxo-ethyl]-2-isopropyl-pyrazole-3-carboxamide]"
4,< 100 nM,"CCn1nccc1C(=O)NC(C(=O)Nc1ccc(-c2c(C)n[nH]c2C)cc1)C(C1CCC1)C1CCC1 (racemic) [Example 35, N-[1-[di(cyclobutyl)methyl]-2-[4-(3,5-dimethyl-1H-pyrazol-4-yl)anilino]-2-oxo-ethyl]-2-ethyl-pyrazole-3-carboxamide]"
5,100 to 1000 nM,"Cc1n[nH]c(C)c1-c1ccc(NC(=O)C(NC(=O)c2ccnn2C)C2CCCC2C)cc1 (racemic) [Example 252, N-[2-[4-(3,5-dimethyl-1H-pyrazol-4-yl)anilino]-1-(2-methylcyclopentyl)-2-oxo-ethyl]-2-methyl-pyrazole-3-carboxamide]"
6,100 to 1000 nM,"Cc1n[nH]c(C)c1-c1ccc(NC(=O)[C@@H](NC(=O)c2ccnn2C(C)CO)C2CCCCC2)cc1 (single isomer, unassigned) [Example 104]"
7,< 100 nM,"Cc1n[nH]c(C)c1-c1ccc(NC(=O)[C@@H](NC(=O)c2ccnn2[C@@H](C)CO)C(C2CC2)C2CC2)cc1 (single isomer, unassigned) [Example 119]"
8,< 100 nM,"Cc1n[nH]c(C)c1-c1ccc(NC(=O)[C@@H](NC(=O)c2ccnn2C(C)CO)C(C2CCC2)C2CCC2)cc1 (single isomer, unassigned) [Example 124]"
9,100 to 1000 nM,"Cc1n[nH]c(C)c1-c1ccc(NC(=O)C(NC(=O)c2ccnn2CCC(C)O)C2CCCCCCC2)cc1 (single isomer, unassigned) [Example 143, N-[1-cyclooctyl-2-[4-(3,5-dimethyl-1H-pyrazol-4-yl)anilino]-2-oxo-ethyl]-2-(3-hydroxybutyl)pyrazole-3-carboxamide]"

# The remaining lines, values behind:
row,SMILES,EC50
1,"Cc1n[nH]c(C)c1-c1ccc(NC(=O)C(NC(=O)c2ccnn2C)[C@@H]2CCOc3ccccc32)cc1 (mixture of isomers) [Example 26, 1:3 mixture of N-[(1S)-1-[(4R)-chroman-4-yl]-2-[4-(3,5-dimethyl-1H-pyrazo 4-yl)anilino]-2-oxo-ethyl]-2-methyl-pyrazole-3-carboxamide and N-[(1R)-1-[(4R)-chroman-4-yl]-2-[4-(3,5-dimethyl-1H-pyrazol-4-yl)anilino]-2-oxo-ethyl]-2-methyl-pyrazole-3-carboxamide]",> 1000 nM
2,"Cc1n[nH]c(C)c1-c1ccc(NC(=O)C(NC(=O)c2ccnn2C(C)C(C)O)C(C2CC2)C2CC2)cc1 (mixture of isomers) [Example 161, N-[(1S)-1-(dicyclopropylmethyl)-2-[4-(3,5-dimethyl-1H-pyrazol-4-yl)anilino]-2-oxo-ethyl]-2-[(1S,25) and (1R,2R)-2-hydroxy-1-methyl-propyl]pyrazole-3-carboxamide]",> 1000 nM
3,Cc1n[nH]c(C)c1-c1ccc(NC(=O)[C@@H](NC(=O)c2ccnn2C)C(C)CC(C)(C)C)cc1 (mixture of isomers) [Example 196],< 100 nM
4,Cc1n[nH]c(C)c1-c1ccc(NC(=O)C(NC(=O)c2ccnn2C)C(C(F)(F)F)C(F)(F)F)cc1 (racemic) [Example 14],> 1000 nM
5,"Cc1n[nH]c(C)c1-c1ccc(NC(=O)C(NC(=O)c2ccnn2C)C2CCC3(CC2)CC3)cc1 (racemic) [Example 21, N-[2-[4-(3,5-dimethyl-1H-pyrazol-4-yl)anilino]-2-oxo-1-spiro[2.5]octan-6-yl-ethyl]-2-methyl-pyrazole-3-carboxamide]",100 to 1000 nM
6,"Cc1n[nH]c(C)c1-c1ccc(NC(=O)C(NC(=O)c2ccnn2C(C)C)C(C2CCC2)C2CCC2)cc1 (racemic) [Example 38, N-[1-[di(cyclobutyl)methyl]-2-[4-(3,5-dimethyl-1H-pyrazol-4-yl)anilino]-2-oxo-ethyl]-2-isopropyl-pyrazole-3-carboxamide]",< 100 nM
7,"Cc1n[nH]c(C)c1-c1ccc(NC(=O)C(NC(=O)c2ccnn2C(C)C)C(C2CC(F)(F)C2)C2CC(F)(F)C2)cc1 (racemic) [Example 294, N-[1-[bis(3,3-difluorocyclobutyl)methyl]-2-[4-(3,5-dimethyl-1H-pyrazol-4-yl)anilino]-2-oxo-ethyl]-2-isopropyl-pyrazole-3-carboxamide]",100 to 1000 nM
8,"Cc1n[nH]c(C)c1-c1ccc(NC(=O)C(NC(=O)c2ccnn2C(C)C)C(C2CC2)C2CC2)cc1 (single isomer, unassigned) [Example 33, N-[1-(dicyclopropylmethyl)-2-[4-(3,5-dimethyl-1H-pyrazol-4-yl)anilino]-2 oxo-ethyl]-2-isopropyl-pyrazole-3-carboxamide]",> 1000 nM
9,"CCn1nccc1C(=O)NC(C(=O)Nc1ccc(-c2c(C)n[nH]c2C)cc1)C(C1CCC1)C1CCC1 (single isomer, unassigned) [Example 37, N-[1-[di(cyclobutyl)methyl]-2-[4-(3,5-dimethyl-1H-pyrazol-4-yl)anilino]-2-oxo-ethyl]-2-ethyl-pyrazole-3-carboxamide]",100 to 1000 nM
10,"Cc1n[nH]c(C)c1-c1ccc(NC(=O)C(NC(=O)c2ccnn2C(C)C)C(C2CCC2)C2CCC2)cc1 (single isomer, unassigned) [Example 40, N-[1-[di(cyclobutyl)methyl]-2-[4-(3,5-dimethyl-1H-pyrazol-4-yl)anilino]-2-oxo-ethyl]-2-isopropyl-pyrazole-3-carboxamide]",100 to 1000 nM
11,"Cc1ncn(C)c1-c1ccc(NC(=O)C(NC(=O)OC(C)(C)C)C2CCC(F)(F)CC2)cc1 (single isomer, unassigned) [Example 85, tert-butyl N-[1-(4,4-difluorocyclohexyl)-2-[4-(3,5-dimethylimidazol-4-yl)anilino]-2-oxo-ethyl]carbamate]",> 1000 nM
12,"Cc1ncn(C)c1-c1ccc(NC(=O)C(NC(=O)OC(C)(C)C)C2CCC(F)(F)CC2)cc1 (single isomer, unassigned) [Example 86, tert-butyl N-[1-(4,4-difluorocyclohexyl)-2-[4-(3,5-dimethylimidazol-4-yl)anilino]-2-oxo-ethyl]carbamate]",> 1000 nM
13,"Cc1n[nH]c(C)c1-c1ccc(NC(=O)[C@@H](NC(=O)c2ccnn2C(C)CO)C2CCCCC2)cc1 (single isomer, unassigned) [Example 105]",100 to 1000 nM
14,"Cc1n[nH]c(C)c1-c1ccc(NC(=O)[C@@H](NC(=O)c2ccnn2C(C)CO)C(C2CCC2)C2CCC2)cc1 (single isomer, unassigned) [Example 123]",< 100 nM
15,"Cc1n[nH]c(C)c1-c1ccc(NC(=O)C(NC(=O)c2ccnn2CCC(C)O)C2CCCCCCC2)cc1 (single isomer, unassigned) [Example 142, N-[1-cyclooctyl-2-[4-(3,5 dimethyl-1H-pyrazol-4-yl)anilino]-2-oxo-ethyl]-2-(3-hydroxybutyl)pyrazole-3-carboxamide]",100 to 1000 nM
16,"Cc1n[nH]c(C)c1-c1ccc(NC(=O)C(NC(=O)c2ccnn2CCC(C)O)C2CCCCCCC2)cc1 (single isomer, unassigned) [Example 144, N-[1-cyclooctyl-2-[4-(3,5-dimethyl-1H-pyrazol-4-yl)anilino]-2-oxo-ethyl]-2-(3-hydroxybutyl)pyrazole-3-carboxamide]",< 100 nM
17,"Cc1n[nH]c(C)c1-c1ccc(NC(=O)C(NC(=O)c2ccnn2CCC(C)O)C2CCCCCCC2)cc1 (single isomer, unassigned) [Example 145, N-[1-cyclooctyl-2-[4-(3,5-dimethyl-1H-pyrazol-4-yl)anilino]-2-oxo-ethyl]-2-(3-hydroxybutyl)pyrazole-3-carboxamide]",< 100 nM
